Test results published in patent US9868722B2, “Monocyclic pyrimidine/pyridine compounds as inhibitors of P97 complex” (Cleave Biosciences, Inc., priority 2013, dated 2018).

Test system: Caco-2 cell monolayers
Conditions: pH 7.4, range over 12 inter-day experiments

CC(C)NCC(O)COc1cccc2ccccc12 (centres unmarked) [Propranolol]
Peff (×E-6 cm/sec) in pH 7.4 Caco-2, A B, Range (A to B): 18.50-36.80 ×E-6 cm/sec
Peff (×E-6 cm/sec) in pH 7.4 Caco-2, B A, Range (B to A): 16.30-31.40 ×E-6 cm/sec
